Data from patent US11479802B2, “Assays for screening activity of modulators of members of the hydroxy steroid (17-beta) dehydrogenase (HSD17B) family” (Regeneron Pharmaceuticals, Inc., priority 2017, dated 2022).

Assays:
Assay type in all cases: biochemical
HSD17B11 = target: T1, HSD17B11 (Homo sapiens, UniProt Q8NBQ5); assay: Steroid substrate panel against HSD17B family member B11; settings: substrate at 50 μM; estradiol set as 100%
T1 construct: made in house
T1 sequence (Q8NBQ5 20-300): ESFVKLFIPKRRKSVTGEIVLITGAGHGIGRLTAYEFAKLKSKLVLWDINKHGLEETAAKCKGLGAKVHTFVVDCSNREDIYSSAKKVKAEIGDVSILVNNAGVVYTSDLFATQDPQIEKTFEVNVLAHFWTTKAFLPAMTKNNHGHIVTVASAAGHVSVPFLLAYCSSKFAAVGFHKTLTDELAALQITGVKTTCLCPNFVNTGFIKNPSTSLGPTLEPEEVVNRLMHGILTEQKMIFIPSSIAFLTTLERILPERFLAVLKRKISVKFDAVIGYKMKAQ
Procedure: (§1) To understand the functional consequences of premature truncation of the HSD17B13 protein due to rs72613567:TA (the associated variant, rs72613567, is an insertion of an adenine adjacent to the donor splice site of exon six (TA allele)), the enzymatic activity of isoforms A and D was evaluated in vitro using recombinant protein and nicotinamide […] dinucleotide as cofactor. Reactions were performed in a final volume of 40 μl of assay buffer (0.2 M Tris-HCl, pH 7.5) which contained 500 μM NAD^+, 5 μM bioactive lipid or 50 μM steroid (all in a final concentration of 5% DMSO), and 100 ng of recombinant human HSD17B13. Reactions were incubated for 3 hours, at 23° C., after which an equal volume detection reagent was added. Following a 1 hour incubation at 23° C., the relative light units (RLUs) were measured on an Envision Plate Reader (Perkin Elmer). Raw RLU values were normalized as percent of control (50 μM estradiol) following subtraction of negative control (5% DMSO) using the following formula: Percent of control (POC)=100×(Sample (RLU)−Negative CTRLaverage)/(Positive CTRLaverage−Negative CTRLaverage).
(§2) In order to determine specificity of compounds with inhibitory activity against HSD17B13, assays for selected members of the HSD17B family which includes HSD17B1-HSD17B14 were established. As a first step, selected family members were expressed, purified and tested for activity a using a steroid substrate panel. Substrates from the steroid panel were tested at 50 μM, using the standard assay protocol. Activity against the substrates for each HSD17B family member were normalized to Percent of Control (POC). The control, estradiol, was set as 100%.

HSD17B2 = target: T2, HSD17B2 (Homo sapiens, UniProt P37059); assay: Steroid substrate panel against HSD17B family member B2; settings: substrate at 50 μM; estradiol set as 100%
T2 construct: made in house
T2 sequence (P37059 1-387): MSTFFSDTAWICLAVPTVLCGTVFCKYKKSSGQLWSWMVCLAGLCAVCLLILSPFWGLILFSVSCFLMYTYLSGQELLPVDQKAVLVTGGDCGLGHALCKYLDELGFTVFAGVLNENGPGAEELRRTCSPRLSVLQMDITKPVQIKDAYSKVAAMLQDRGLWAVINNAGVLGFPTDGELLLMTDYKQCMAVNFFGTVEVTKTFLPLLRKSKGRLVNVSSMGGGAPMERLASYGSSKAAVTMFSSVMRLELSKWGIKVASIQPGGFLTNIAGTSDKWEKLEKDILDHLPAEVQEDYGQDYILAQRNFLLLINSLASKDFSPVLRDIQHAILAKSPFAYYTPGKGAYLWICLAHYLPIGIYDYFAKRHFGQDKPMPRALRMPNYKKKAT
Procedure: as §1, §2

HSD17B1 = target: T3, HSD17B1 (Homo sapiens, UniProt P14061); assay: Steroid substrate panel against HSD17B family member B1; settings: substrate at 50 μM; estradiol set as 100%
T3 construct: made in house
T3 sequence (P14061 1-328): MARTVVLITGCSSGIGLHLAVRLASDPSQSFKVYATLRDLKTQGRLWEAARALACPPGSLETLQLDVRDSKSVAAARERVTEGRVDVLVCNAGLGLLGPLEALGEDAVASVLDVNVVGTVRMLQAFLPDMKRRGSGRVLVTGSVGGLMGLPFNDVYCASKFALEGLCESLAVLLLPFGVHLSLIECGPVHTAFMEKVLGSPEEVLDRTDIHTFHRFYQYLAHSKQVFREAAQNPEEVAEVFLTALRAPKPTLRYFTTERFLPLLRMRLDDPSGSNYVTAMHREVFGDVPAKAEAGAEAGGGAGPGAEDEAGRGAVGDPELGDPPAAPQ
Procedure: as §1, §2

HSD17B5 = target: T4, HSD17B5 (Homo sapiens, UniProt P42330); assay: Steroid substrate panel against HSD17B family member B5; settings: substrate at 50 μM; estradiol set as 100%
T4 construct: made in house
T4 sequence (P42330 1-323): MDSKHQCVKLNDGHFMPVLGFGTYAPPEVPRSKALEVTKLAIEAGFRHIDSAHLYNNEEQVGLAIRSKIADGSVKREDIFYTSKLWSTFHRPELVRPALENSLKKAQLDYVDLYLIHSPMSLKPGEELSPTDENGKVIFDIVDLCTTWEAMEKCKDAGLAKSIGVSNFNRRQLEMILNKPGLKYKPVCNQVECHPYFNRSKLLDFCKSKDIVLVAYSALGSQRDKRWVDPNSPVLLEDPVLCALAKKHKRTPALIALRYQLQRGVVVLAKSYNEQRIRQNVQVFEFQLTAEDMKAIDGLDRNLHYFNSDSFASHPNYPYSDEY
Procedure: as §1, §2

HSD17B10 = target: T5, HSD17B10 (Homo sapiens, UniProt Q99714); assay: Steroid substrate panel against HSD17B family member B10; settings: substrate at 50 μM; estradiol set as 100%
T5 construct: made in house
T5 sequence (Q99714 1-261): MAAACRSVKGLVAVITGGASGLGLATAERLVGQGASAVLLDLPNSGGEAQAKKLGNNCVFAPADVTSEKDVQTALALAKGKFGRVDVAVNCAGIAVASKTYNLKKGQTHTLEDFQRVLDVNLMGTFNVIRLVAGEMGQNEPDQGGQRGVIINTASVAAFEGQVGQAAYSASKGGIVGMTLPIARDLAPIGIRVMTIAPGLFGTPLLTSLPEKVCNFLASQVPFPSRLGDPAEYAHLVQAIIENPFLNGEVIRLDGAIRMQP
Procedure: as §1, §2

human HSD17B13 = target: T6, human HSD17B13 (Homo sapiens, UniProt Q7Z5P4); assay: Substrate screening of steroid and bioactive lipid libraries against purified recombinant HSD17B13 (NADH-linked luciferase assay); settings: for HSD17B13 Enzymatic Activity Relative Light Units: 500 μM NAD+, 100 ng enzyme, 3 hours at 23° C.; for HSD17B13 Enzymatic Activity Percent Estradiol Control: normalized to 50 μM estradiol after subtraction of 5% DMSO
T6 sequence (Q7Z5P4 20-300): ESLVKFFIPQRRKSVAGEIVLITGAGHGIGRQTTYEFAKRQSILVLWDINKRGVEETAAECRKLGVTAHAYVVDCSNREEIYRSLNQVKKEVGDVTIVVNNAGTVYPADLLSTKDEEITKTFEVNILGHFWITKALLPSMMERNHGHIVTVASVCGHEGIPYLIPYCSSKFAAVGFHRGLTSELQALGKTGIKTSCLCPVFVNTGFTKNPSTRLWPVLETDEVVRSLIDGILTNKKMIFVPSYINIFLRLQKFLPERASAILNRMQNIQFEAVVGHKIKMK
In short: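 Substrates (bioactive lipids 5 μM, steroids 50 μM; 5% DMSO) tested with 500 μM NAD+ and 100 ng recombinant human HSD17B13 in 0.2 M Tris-HCl pH 7.5, 3 h, 23° C. Luminescent NADH detection followed 1 h later; RLU normalized to estradiol (50 μM, 100%) and DMSO (0%) controls.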

HSD17B4 = target: T7, HSD17B4 (Homo sapiens, UniProt P51659); assay: Steroid substrate panel against HSD17B family member B4; settings: substrate at 50 μM; estradiol set as 100%
T7 construct: made in house
T7 sequence (P51659 1-736): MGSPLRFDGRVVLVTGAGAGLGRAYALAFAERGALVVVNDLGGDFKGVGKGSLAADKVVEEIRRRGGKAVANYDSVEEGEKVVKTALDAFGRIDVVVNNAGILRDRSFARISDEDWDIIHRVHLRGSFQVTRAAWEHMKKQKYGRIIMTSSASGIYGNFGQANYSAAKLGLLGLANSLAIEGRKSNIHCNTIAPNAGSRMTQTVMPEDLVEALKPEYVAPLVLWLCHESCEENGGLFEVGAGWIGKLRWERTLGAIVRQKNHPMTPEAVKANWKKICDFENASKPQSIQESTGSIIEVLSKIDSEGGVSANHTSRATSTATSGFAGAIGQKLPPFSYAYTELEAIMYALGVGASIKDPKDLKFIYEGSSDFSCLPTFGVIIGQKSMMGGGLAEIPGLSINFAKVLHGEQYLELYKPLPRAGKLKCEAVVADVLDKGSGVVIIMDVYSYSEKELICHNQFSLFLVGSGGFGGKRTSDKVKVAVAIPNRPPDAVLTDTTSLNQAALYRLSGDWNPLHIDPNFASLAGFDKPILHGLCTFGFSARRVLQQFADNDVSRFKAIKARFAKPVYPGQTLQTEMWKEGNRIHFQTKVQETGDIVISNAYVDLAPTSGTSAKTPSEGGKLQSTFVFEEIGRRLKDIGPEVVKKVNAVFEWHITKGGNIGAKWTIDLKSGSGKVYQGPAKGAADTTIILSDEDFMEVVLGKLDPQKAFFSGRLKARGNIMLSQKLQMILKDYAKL
Procedure: as §1, §2

Compound | Percent of Control (POC), B11 (HSD17B11) | Percent of Control (POC), B2 (HSD17B2) | Percent of Control (POC), B1 (HSD17B1) | Percent of Control (POC), B5 (HSD17B5) | Percent of Control (POC), B10 (HSD17B10) | HSD17B13 Enzymatic Activity Relative Light Units (human HSD17B13; Steroid Library, 50 μM steroid) | HSD17B13 Enzymatic Activity Percent Estradiol Control (human HSD17B13; Steroid Library, 50 μM steroid) | Percent of Control (POC), B4 (HSD17B4) | HSD17B13 Enzymatic Activity Percent Estradiol Control (human HSD17B13; Bioactive Lipid Library, 5 μM bioactive lipid) | HSD17B13 Enzymatic Activity Percent Estradiol Control (human HSD17B13; Steroid Library, 50 μM steroid, listed as Beta-estradiol) | HSD17B13 Enzymatic Activity Percent Estradiol Control (human HSD17B13; Steroid Library, 50 μM steroid, listed as Estradiol Control)
CC(=O)OCC(=O)[C@H]1CC[C@H]2[C@@H]3CCC4=CC(=O)CC[C@]4(C)[C@H]3[C@@H](O)C[C@]12C [Corticosterone 21-acetate] | 32.2% | 0.0% | −0.1% | 0% | 0.3% | 190160 RLU | 0.52% | 0.1% | – | – | –
C[C@]12CCC(=O)C[C@@H]1CC[C@@H]1[C@@H]2CC[C@]2(C)[C@@H](O)CC[C@@H]12 [DHT, dihydroxy testosterone (DHT)] | 12.7% | 61.2% | 0.4% | 0% | 3.3% | 1886360 RLU | 30.14% | 37.1% | – | – | –
C[C@]12CC[C@@H]3c4ccc(O)cc4CC[C@H]3[C@@H]1CC[C@@H]2O [Estradiol] | 100% | 100% | 100% | 100% | 100% | – | 85.76% | 100% | 100.00% | 72.17% | 100.00%
CC1(C)[C@@H](O[C@H]2O[C@H](C(=O)O)[C@@H](O)[C@H](O)[C@H]2O[C@@H]2O[C@H](C(=O)O)[C@@H](O)[C@H](O)[C@H]2O)CC[C@]2(C)[C@H]3C(=O)C=C4[C@@H]5C[C@@](C)(C(=O)O)CC[C@]5(C)CC[C@@]4(C)[C@]3(C)CC[C@@H]12 [Glycyrrhizic acid] | 32.7% | 0.0% | −0.1% | 0% | 0.1% | 163600 RLU | 0.05% | 0.7% | – | – | –
C[C@H](O)[C@@]1(O)CC[C@H]2[C@@H]3CC[C@@H]4C[C@H](O)CC[C@]4(C)[C@H]3CC[C@@]21C [Pregnanetriol] | 26.1% | 6.1% | −0.1% | 48% | 26.4% | 163920 RLU | 0.06% | 0.4% | – | – | –
C[C@]12CC[C@H]3[C@@H](CCC4=CC(=O)CC[C@@]43C)[C@@H]1CC[C@@H]2O [Testosterone] | 10.4% | 96.2% | 1.1% | 0% | 4.0% | 1125600 RLU | 16.86% | 84.6% | – | – | –
